Experiments:
[1] = tested on: AR-PC-3 androgen-insensitive human prostate cancer cell line; experiment: MTT in vitro cytotoxicity assay, 24 h incubation; type: cell-based; details: for IC50: Homo sapiens, MTT; for Selective Index Wi38/PC-3: ratio of IC50 values
Procedure: (§1) The antitumor properties of pyrazolylmethylene-2-thioxoimidazolidin-4-one derivatives (3a–p) against androgen-sensitive (AR^+LNCaP; ATCC CRL-1740, Accession: CVCL_0395) and androgen-insensitive (AR^-PC-3; ATCC CRL-1435, Accession: CVCL_D5ZS) human prostate cancer cell lines in addition to normal human lung fibroblast cell line (Wi38, Accession: CVCL_2759) were evaluated by MTT assay. AR^+LNCaP, AR^-PC-3, and Wi38 cell lines were purchased frozen in liquid nitrogen from Egyptian Company for Production of Vaccines, Sera and Drugs, Cairo, Egypt (VACSERA). Tumor cell lines were stored as monolayer cultures in DMEM supplemented with 10% FBS and 1% penicillin–streptomycin. MTT assay was carried out as described previously in the literature. In brief, AR^+LNCaP, AR^-PC-3, and Wi38 cells were cultured into 96-well plates containing 100 µL of culture medium per each well. […] A control containing only culture medium was also applied. The assay was performed in triplicate. The cells were incubated overnight to grow at 37 °C in 5% CO2. After removing the growth medium, 100 µL of MTT (0.4 mg/mL of PBS) were added. After 24 h of incubation, the supernatant was removed and 100 µL of DMSO (Sigma Aldrich, Germany) were then added to each sample. Absorbance at 550 nm was measured. The formula (Reading of extract/Reading of negative control) × 100 was applied to calculate the viability percentage. The IC50 value of test compounds (3a–p) was also determined using CPE measurements of normal Wi38 cells (normal human lung fibroblast cells). The MTT assay was repeated with the test compounds (3i, 3k, 3o, 3j, 3p, and 3m) using the three cell types which were stimulated by 1 nM DHT after 48 h of incubation. IC50 values were estimated using Graph Pad Prism computer software (International Scientific Community, San Diego, CA, USA) from linear regression analysis of the concentration–response curves plotted for each tested compound [36].
(§2) In vitro cytotoxicity assay was performed to elucidate the antitumor properties of the synthesized derivatives of pyrazolylmethylene-2-thioxoimidazolidin-4-one. […] The cytotoxicity assay was performed using MTT assay as described in the Materials and Methods Section 2.4.1. The test compounds were dissolved in DMSO as stock solutions (<0.5% (v/v)) and stored in the dark at −20 °C. The human prostate cancer cells and normal human lung fibroblast cells were subjected to variable doses of the compounds for 24 h.

[2] = tested on: AR+LNCaP androgen-sensitive human prostate cancer cell line; experiment: MTT in vitro cytotoxicity assay, 24 h incubation; type: cell-based; details: for IC50: Homo sapiens, MTT; for Selective Index Wi38/Lncap: ratio of IC50 values
Procedure: as §1, §2

[3] = tested on: Wi38 normal human lung fibroblast cell line; experiment: MTT in vitro cytotoxicity assay, 24 h incubation; type: cell-based; details: WI-38
Procedure: as §1, §2

[4] = tested on: AR-PC-3 androgen-insensitive human prostate cancer cell line; experiment: MTT cytotoxicity assay in presence of 1 nM DHT, 48 h incubation; type: cell-based
Procedure: as §1
(§3) The assay was performed in the presence of dihydrotestosterone (1 nM DHT) for 48 h of incubation as previously described. DHT is a potent inducer of androgens that enhances prostate cancer disease progression.

[5] = tested on: AR+LNCaP androgen-sensitive human prostate cancer cell line; experiment: as above; type: cell-based; details: for IC50: Homo sapiens; for Selectivity AR-/AR+: IC50 PC-3 / IC50 LNCaP
Procedure: as §1, §3

[6] = tested on: Wi38 normal human lung fibroblast cell line; experiment: as above; type: cell-based; details: WI-38, read-out: IC50 Wi38
Procedure: as §1, §3

AR+LNCaP cells [7] = experiment: Cell apoptosis assay (Annexin V-FITC, flow cytometry); type: cell-based, human; details: IC50 concentration, 1 nM DHT, 24 h
Procedure: Cell apoptosis assay was performed to ensure the efficacy of compounds 3i and 3k against the progression of AR^+LNCaP tumor cell growth in the presence of 1 nM DHT. Untreated AR^+LNCaP and Enzalutamide-treated AR^+LNCaP were used in this assay as negative and positive controls, respectively. AR^+LNCaP cells were precultured in 25 cm^2 flasks. Briefly, 1 nM DHT was then added to the growing cells. […] AR^+LNCaP cells were harvested and fixed with 70% (v/v) ethanol in FBS (Sigma-Aldrich, Germany), then maintained at 4 °C overnight. The cells were resuspended in FBS containing 0.1% (v/v) Triton X-100, 40 µg/mL […], and 0.1 mg/mL RNase then incubated in a dark chamber at 37 °C for 30 min. A flow-cytometer (Becton Dickinson, San Jose, CA, USA) supplemented with an argon ion laser at a wavelength of 488 nm was used to analyze the AR^+LNCaP cell apoptotic stages. Based on the protocol described by Ozgur et al. (2003), analysis of the data was implemented using Multicycle Software (Phoenix Flow Systems, San Diego, CA, USA; http://www.phoenixflow.com/index.html).
The active compounds 3i and 3k were further analyzed to evaluate their antitumor properties against the growth of the AR^+LNCaP prostate cancer cell line. […] Untreated AR^+LNCaP cells and Enzalutamide reference drug were also used as negative and positive controls in this assay, respectively.

AR+LNCaP cells [8] = experiment: DNA content at cell cycle stages (Propidium Iodide flow cytometry); type: cell-based, human; details: IC50 concentration, 1 nM DHT
Procedure: The amount of DNA contents of AR^+LNCaP cells stimulated with 1 nM DHT and treated with representative test compounds 3i and 3k at the different stages of the cell cycle were quantitatively evaluated as described previously. […] The Ab139418–Propidium Iodide Flow Cytometry Kit for Cell Cycle Analysis (ab139418, Abcam, Cambridge, UK) was employed for this assay following the procedures provided by the supplier.
Firstly, the ab139418-Propidium Iodide Flow Cytometry Kit for Cell Cycle Analysis (Bio vision, Boston, MA, USA) was used to quantify DNA contents at each cell cycle stage as an indicator of the cell cycle growth arrest.

[9] = tested on: active human caspase-3 in AR+LNCaP cells; experiment: Detection of active Caspase 3 in AR+LNCaP cell lysates (Invitrogen Elisa kit); type: cell-based; parameters: Caspase 3 Conc. (Average): unit not given here; details: for active Caspase 3 fold change compared to untreated cells / induction of active caspase 3 as a percentage of the reference drug Enzalutamide: IC50 concentration; for active Caspase 3 fold change compared to untreated cells: 1 nM DHT, AR+LNCaP lysate; for induction of active caspase 3 as a percentage of the reference drug Enzalutamide: AR+LNCaP; for Caspase 3 fld / Caspase 3: LNCaP, supplement lab report; for Caspase 3 fld: fold of control; for Caspase 3 Conc. (Average): supplement ELISA read-out, average of two wells
Procedure: Untreated AR^+LNCaP and Enzalutamide-treated AR^+LNCaP were used as negative and positive controls, respectively. AR^+LNCaP cells were cultured in 96-well plates at a cell density of 1 × 10^4 cells/well. Cells were then lysed with 50 µL lysis buffer/well supplemented with the Invitrogen Elisa kit for detection of active human caspase-3 (Invitrogen, Camarillo, CA, USA). Plates were frozen at −80 °C for 30 min and then thawed. The lysate was mixed with 2 Z-DEVD-R110 substrate and incubated at room temperature for 30 min. A fluorescence microplate reader (Tecan, Mainz-Kastel, Germany), was used to measure fluorescence via excitation at 496 nm and emission detection at 520 nm. Values were normalized with total protein content. Active caspase 3 accumulation was determined based on standard dilution series of Human Caspase-3 samples provided with the kit. […]

SMILES	melting point [°C]	IC50 [1] [µM]	Selective Index Wi38/PC-3 [1]	IC50 [2] [µM]	Selective Index Wi38/Lncap [2]	IC50 [3] [µM]	IC50 [4] [µM]	IC50 [5] [µM]	Selectivity AR-/AR+ [5]	CC50 [6] [µM]	Early Apoptosis (%) (AR+LNCaP cells [7])	Late Apoptosis (%) (AR+LNCaP cells [7])	Necrotic Cells (%) (AR+LNCaP cells [7])	Total Apoptosis (%) (AR+LNCaP cells [7])	DNA Content (%) G0–G1 (AR+LNCaP cells [8]) [%]	active Caspase 3 fold change compared to untreated cells [9] [fold]	induction of active caspase 3 as a percentage of the reference drug Enzalutamide [9] [%]	Caspase 3 fld [9]	Caspase 3 [9] [pg/mL]	Caspase 3 Conc. (Average) [9]	other results
O=C1NC(=S)NC1=Cc1cn(-c2ccc(F)cc2)nc1-c1ccc(Cl)cc1 [Compound 3i, 5-((3-(4-Chlorophenyl)-1-(4-fluorophenyl)-1H-pyrazol-4-yl)methylene)-2-thioxoimidazolidin-4-one]	168 to 170	19.5 ± 0.21	1.5	12.07 ± 0.09	2.5	29.93 ± 0.12	15.52 ± 0.12	6.08 ± 0.04	2.6	21.93 ± 0.14	11.47	7.55	2.77	21.79	58.33	4.7	71.4	4.667	358.9	358.9	DNA Content (%) G2/M (AR+LNCaP cells [8]): 22.48%; DNA Content (%) S (AR+LNCaP cells [8]): 19.19%
Cc1ccc(-c2nn(-c3ccc(F)cc3)cc2C=C2NC(=S)NC2=O)cc1 [Compound 3m, 5-((1-(4-Fluorophenyl)-3-(p-tolyl)-1H-pyrazol-4-yl)methylene)-2-thioxoimidazolidin-4-one]	167 to 169	22.5 ± 0.46	1.3	12.97 ± 0.06	2.4	30.54 ± 0.08	13.1 ± 0.14	10.5 ± 0.11	1.3	23.33 ± 0.19						3.2	48.6	3.176	244.3	244.3	
O=C1NC(=S)NC1=Cc1cn(-c2ccc(C(F)(F)F)cc2)nc1-c1ccc(F)cc1 [Compound 3o, 5-((3-(4-Fluorophenyl)-1-(4-(trifluoromethyl)phenyl)-1H-pyrazol-4-yl)methylene)-2-thioxoimidazolidin-4-one]	205 to 207	21.08 ± 0.1	1.2	12.66 ± 0.11	2.0	25.08 ± 0.08	16.4 ± 0.17	11.75 ± 0.07	1.4	22.35 ± 0.13						3.5	53.4	3.490	268.4	268.4	

More lines, main results first:

melting point [°C]	SMILES	IC50 [1] [µM]	Selective Index Wi38/PC-3 [1]	IC50 [2] [µM]	Selective Index Wi38/Lncap [2]	IC50 [3] [µM]	IC50 [4] [µM]	IC50 [5] [µM]	Selectivity AR-/AR+ [5]	CC50 [6] [µM]	Early Apoptosis (%) (AR+LNCaP cells [7])	Late Apoptosis (%) (AR+LNCaP cells [7])	Necrotic Cells (%) (AR+LNCaP cells [7])	Total Apoptosis (%) (AR+LNCaP cells [7])	DNA Content (%) G0–G1 (AR+LNCaP cells [8]) [%]	active Caspase 3 fold change compared to untreated cells [9] [fold]	induction of active caspase 3 as a percentage of the reference drug Enzalutamide [9] [%]	Caspase 3 fld [9]	Caspase 3 [9] [pg/mL]	Caspase 3 Conc. (Average) [9]	other results
210 to 212	O=C1NC(=S)NC1=Cc1cn(-c2ccc(F)cc2)nc1-c1ccc(C(F)(F)F)cc1 [Compound 3k, 5-((1-(4-Fluorophenyl)-3-(4-(trifluoromethyl)phenyl)-1H-pyrazol-4-yl)methylene)-2-thioxoimidazolidin-4-one]	22.5 ± 0.29	1.5	10.3 ± 0.14	3.2	32.81 ± 0.08	13.9 ± 0.18	5.22 ± 0.12	2.7	19.81 ± 0.07	12.11	16.89	6.02	35.02	65.21	5.4	81.2	5.304	407.9	407.9	DNA Content (%) G2/M (AR+LNCaP cells [8]): 19.18%; DNA Content (%) S (AR+LNCaP cells [8]): 15.61%
223 to 225	O=C1NC(=S)NC1=Cc1cn(-c2ccc(C(F)(F)F)cc2)nc1-c1ccc(C(F)(F)F)cc1 [Compound 3p, 5-((1,3-Bis(4-(trifluoromethyl)phenyl)-1H-pyrazol-4-yl)methylene)-2-thioxoimidazolidin-4-one]	23.2 ± 0.12	1.0	12.11 ± 0.08	2.1	25.35 ± 0.12	15.2 ± 0.25	5.91 ± 0.13	2.7	20.18 ± 0.14						4.4	66.6	4.351	334.6	334.6	

From article PMC11274643, “Design, Synthesis, Characterization, and Cytotoxicity of New Pyrazolylmethylene-2-thioxoimidazolidin-4-one Derivatives towards Androgen-Sensitive LNCaP Prostate Cancer Cells” (Biomolecules, 2024)
